Columns and labels:
SCF (Kit) mRNA = experiment: SCF mRNA expression in lung and liver of mice after CLP (RT-PCR); type: in vivo; conditions: 50 mg/kg
Experimental: (§1) Specifically, donor transgenic GFP (C57BL/6) mice are given 5-FU (150 mg/kg) to kill mature cells. Bone marrow is harvested. C57BL/6 congenic recipient mice are exposed to lethal doses of whole-body radiation (10Gy Cesium-137 at 1.0 Gy/min) and then undergo bone marrow transplant. Engraftment of GFP-BMSC is confirmed after five weeks in select sacrificed mice. Surviving mice are GFP-BMSC chimeras available for investigation. These GFP-BMSC mice then undergo CLP. Specifically, the mice are anesthetized and undergo laparotomy. The sham group undergo laparotomy only. The non-sham group has the cecum ligated and punctured (size and number of punctures may vary depending on the desired severity of injury). Mice are sacrificed at six, twelve and 24 hours. […] Serum is analyzed for levels of cytokines (TNF-α, IL-1, IL-2, IL-4, IL-6, IL-10, and IFN-γ) and chemokines (SDF-1 and SCF). […]
(§2) Additionally, four groups of 20 mice: sham group underwent celiotomy but not CLP; control group underwent CLP and administration of PBS; simultaneous treatment group (STG) had administration of 50 mg/kg MADG PO. […] Serum and tissue levels of pro- and anti-inflammatory cytokines were measured. Serum levels of chemokines stromal cell-derived factor (SDF-1) and stem cell factor (SCF) were measured to ascertain if effects of MADG involve stimulation of bone marrow stromal and stem cells. […]

SDF-1 (Cxcl12) mRNA = experiment: SDF-1 mRNA expression in lung and liver of mice after CLP (RT-PCR); type: in vivo; conditions: 50 mg/kg
Experimental: as §1, §2

CCCCC/C=C\C/C=C\CCCCCCCC(=O)OC(COC(C)=O)COC(=O)CCCCCCCCCCCCCCC (racemic) [EC-18, 1-palmitoyl-2-linoleoyl-3-acetyl-rac-glycerol]
increased early expression: kit (SCF) mRNA expression in the liver (SCF (Kit) mRNA; liver, compared to controls (FIG. 5B)) | kit (SCF) mRNA expression in the lung (SCF (Kit) mRNA; lung, compared to controls (FIG. 4B)) | Cxcl2 (SDF-1) mRNA expression in the liver (SDF-1 (Cxcl12) mRNA; liver, compared to controls (FIG. 5A)) | Cxcl2 (SDF-1) mRNA expression in the lung (SDF-1 (Cxcl12) mRNA; lung, compared to controls (FIG. 4A))

— patent US20100010087A1, “Methods for Inducing Stem Cell Migration and Specialization with EC-18” (priority 2008, published 2010)
